Measured values reported in ChEMBL document CHEMBL5131401, “Structural Basis for Developing Multitarget Compounds Acting on Cysteinyl Leukotriene Receptor 1 and G-Protein-Coupled Bile Acid Receptor 1” (J Med Chem, 2021).
Converted amounts (≈) assume the structure as drawn.

Experiments:
[1] = Aqueous solubility of compound in pH 7.4 PBS buffer measured after 24 hrs by LC-MS/MS analysis; type: physicochemical
[2] = Lipophilicity, logD of the compound in octanol and phosphate buffer at pH 7.4 incubated for 2 hrs under shaking condition by LC-MS/MS analysis; type: physicochemical
[3] = Metabolic stability in human liver microsomes assessed as half life at 1 uM measured up to 60 mins in presence of NADPH by LC-MS/MS analysis; type: ADME, Microsome; details: for half-life at 1 µM: liver microsomes
[4] = Metabolic stability in human liver S9 fraction assessed as half life at 1 uM measured after 2 hrs in presence of NADPH by LC-MS/MS analysis; type: ADME, subcellular

Compound | solubility at 24 h [1] | logD at 2 h [2] | half-life at 1 µM [3] | half-life at 1 µM [4] | t1/2 ([3]; microsomes, 1 h, 1 µM)
O=C(O)c1cccc(OCc2ccc3ccccc3n2)c1 | > 200 µM | 0.12 | – | – | –
OCc1cccc(OCc2ccc3ccccc3n2)c1 | 141 µM (≈ 37.4 µg/mL) | 2.8 | 48 min | 119 min | –
CCCCCC(O)c1cccc(OCc2ccc3ccccc3n2)c1 (stereo not drawn) [REV-5901] | 39.3 µM (≈ 13.2 µg/mL) | 3.1 | – | 57 min | 37 h
CCC(C)COc1cccc(OCc2ccc3ccccc3n2)c1 (stereo not drawn) | 3.5 µM (≈ 1.12 µg/mL) | 1.01 | 22.3 min | – | –
